Results from patent US11014934B2, “Antiseptic drug” (AO “TATKHIMFARMPREPARATY”, priority 2017, dated 2021).
Like-named read-outs stand apart in the source and are kept apart here.

Key:
Assay in all cases: MIC, serial dilutions in Müller-Hinton broth
Type in all cases: cell-based
E. faecium 3028 = system: E. faecium 3028
Experimental: (§1) A comparative assessment of the spectrum of antibacterial action was carried out on archival and clinical strains of gram-positive and gram-negative microorganisms in accordance with the [Opredeleniye chuvstvitel'nosti mikroorganizmov k antibakterial'nym preparatam (Metodicheskiye ukazaniya MUK 4.2.1890-04). Utverzhdeny i vvedeny v deystviye Glavnym gosudarstvennym sanitarnym vrachom Rossiyskoy Federatsii G. G. Onishchenko 04.03.2004 g. Determination of the sensitivity of microorganisms to antibacterial drugs (Guidelines MUK 4.2.1890-04). Approved and put into effect by the Chief State Sanitary Doctor of the Russian Federation G. G. Onishchenko on 4 Mar. 2004].
(§2) The value of the minimum inhibitory concentration (MIC) was determined by the method of serial dilutions on Müller-Hinton broth using 96-well sterile plates. Two-fold dilutions of the test substances in a nutrient medium were prepared. The final concentrations were 1-128 ug/ml. The growth of cultures was assessed visually, comparing the growth of microorganisms in the presence of test compounds with the growth of culture without them. […] The first lowest concentration of the studied substance (from a series of consecutive dilutions), where bacterial growth is not visually determined, is considered to be the minimum inhibitory concentration (MIC). MIC was determined by the method of serial dilutions in broth with increment=2, so the differences of neighboring dilutions are not considered to be significant. In each experience there is a positive (broth with growing culture) and a negative (broth without growing culture) control.
(§3) To determine the MIC, 10 μl of culture medium was taken from those wells in which growth was not observed, and inoculation was performed on a dense Müller-Hinton broth. For the preparation of the inoculum, a pure, daily culture of gram-positive and gram-negative microorganisms grown on a dense nutrient medium was used. Nutrient medium is Müller-Hinton broth, which was prepared from dry media (Müller-Hinton broth, Acumedia, Baltimore), cultivation was carried out on agarized Müller-Hinton broth, including an additional 2% agar. The media were autoclaved at 121° C. for 15 minutes. In a sterile isotonic solution of sodium chloride, a suspension of microorganisms was prepared, adjusting the inoculum density to 0.5 according to the McFarland standard (1.5·10^8 CFU/ml). Then, the resulting inoculum was diluted to a concentration of 10^7 CFU/ml with Müller-Hinton broth. The inoculum was used within 15 minutes after preparation; the purity of the bacterial strains was monitored before each experiment.
(§4) 100 μl of Müller-Hinton broth was added to the wells of each plate; The tested substance was introduced into the first well at a concentration of 128 μg/ml in a volume of 100 μl and its concentration was adjusted to 0.5 μg/ml by consecutive two-fold dilution. Then, the prepared inoculum (100 μI) was added to each well, thereby diluting twice the concentration of the studied compounds. […] In addition, the purity of nutrient media and solvents was monitored. The plates were incubated in a thermostat at 37° C. for 24 hours. The growth of cultures was assessed visually, comparing the growth of microorganisms in the presence of test compounds with the growth of culture without them.
(§5) For the MIC was taken the minimum concentration of the studied compounds, providing complete suppression of the visible growth of the studied strains of microorganisms. The maximum value obtained in three independent experiments was taken as the MIC of the compound.

Klebsiella spp. 10 = system: Klebsiella spp. 10
Experimental: as §1, §2, §3, §4, §5

S. marcescens 1966 PR = system: S. marcescens 1966 PR
Experimental: as §1, §2, §3, §4, §5

Klebsiella spp. 11 = system: Klebsiella spp. 11
Experimental: as §1, §2, §3, §4, §5

S. aureus 19 = system: S. aureus 19
Experimental: as §1, §2, §3, §4, §5

Kl. pneumoniae 1781 = system: Kl. pneumoniae 1781
Experimental: as §1, §2, §3, §4, §5

S. aureus 1173 MRSA = system: S. aureus 1173 MRSA
Experimental: as §1, §2, §3, §4, §5

S. aureus 1168 MRSA = system: S. aureus 1168 MRSA
Experimental: as §1, §2, §3, §4, §5

Pseudomonas spp.6 = conditions: inoculum 10^7 CFU/ml
Experimental: as §1, §2, §3, §4, §5

Moraxella sp.834 = system: Moraxella sp.834
Experimental: as §1, §2, §3, §4, §5

Serratia spp. 15 = system: Serratia spp. 15
Experimental: as §1, §2, §3, §4, §5

S. aureus 21 = system: S. aureus 21
Experimental: as §1, §2, §3, §4, §5

E. faecalis 3060 = system: E. faecalis 3060
Experimental: as §1, §2, §3, §4, §5

Moraxella sp. 764 = system: Moraxella sp. 764
Experimental: as §1, §2, §3, §4, §5

Acinetobacter spp. 3 = system: Acinetobacter spp. 3
Experimental: as §1, §2, §3, §4, §5

E. faecium 25 = system: E. faecium 25
Experimental: as §1, §2, §3, §4, §5

M. luteus = system: M. luteus
Experimental: as §1, §2, §3, §4, §5

E. faecium 24 = system: E. faecium 24
Experimental: as §1, §2, §3, §4, §5

Kl. pneumoniae 645 PR = system: Kl. pneumoniae 645 PR
Experimental: as §1, §2, §3, §4, §5

Ps. aeruginosa 2869 = system: Ps. aeruginosa 2869
Experimental: as §1, §2, §3, §4, §5

S. aureus 967 MRSA = system: S. aureus 967 MRSA
Experimental: as §1, §2, §3, §4, §5

E. faecium 4402 = system: E. faecium 4402
Experimental: as §1, §2, §3, §4, §5

E.coli ATCC 25922 = system: E.coli ATCC 25922
Experimental: as §1, §2, §3, §4, §5

alkyldimethyl(phenylmethyl) ammonium chloride [Benzalconium chloride]
MIC (E. faecium 3028; E. faecium 3028, inoculum 10^7 CFU/ml): 4 µg/mL | MIC (Klebsiella spp. 10; Klebsiella spp. 10, inoculum 10^7 CFU/ml): 1 µg/mL | MIC (S. marcescens 1966 PR; S. marcescens 1966 PR, inoculum 10^7 CFU/ml): 64 µg/mL | MIC (Klebsiella spp. 11; Klebsiella spp. 11, inoculum 10^7 CFU/ml): 2 µg/mL | MIC (S. aureus 19; S. aureus 19, inoculum 10^7 CFU/ml): <0.5 µg/mL | MIC (Kl. pneumoniae 1781; Kl. pneumoniae 1781, inoculum 10^7 CFU/ml): 16 µg/mL | MIC (S. aureus 1173 MRSA; S. aureus 1173 MRSA, inoculum 10^7 CFU/ml): 8 µg/mL | MIC (S. aureus 1168 MRSA; S. aureus 1168 MRSA, inoculum 10^7 CFU/ml): 2 µg/mL | MIC (Pseudomonas spp.6): 16 µg/mL | MIC (Moraxella sp.834; Moraxella sp.834, inoculum 10^7 CFU/ml): 2 µg/mL | MIC (Serratia spp. 15; Serratia spp. 15, inoculum 10^7 CFU/ml): 2 µg/mL | MIC (S. aureus 21; S. aureus 21, inoculum 10^7 CFU/ml): <0.5 µg/mL | MIC (E. faecalis 3060; E. faecalis 3060, inoculum 10^7 CFU/ml): 4 µg/mL | MIC (Moraxella sp. 764; Moraxella sp. 764, inoculum 10^7 CFU/ml): 4 µg/mL | MIC (Acinetobacter spp. 3; Acinetobacter spp. 3, inoculum 10^7 CFU/ml): 4 µg/mL | MIC (E. faecium 25; E. faecium 25, inoculum 10^7 CFU/ml): <0.5 µg/mL | MIC (M. luteus; M. luteus, inoculum 10^7 CFU/ml): 1 µg/mL | MIC (E. faecium 24; E. faecium 24, inoculum 10^7 CFU/ml): <0.5 µg/mL | MIC (Kl. pneumoniae 645 PR; Kl. pneumoniae 645 PR, inoculum 10^7 CFU/ml): 16 µg/mL | MIC (Ps. aeruginosa 2869; Ps. aeruginosa 2869, inoculum 10^7 CFU/ml): 64 µg/mL | MIC (S. aureus 967 MRSA; S. aureus 967 MRSA, inoculum 10^7 CFU/ml): 8 µg/mL | MIC (E. faecium 4402; E. faecium 4402, inoculum 10^7 CFU/ml): 1 µg/mL | MIC (E.coli ATCC 25922; E.coli ATCC 25922, inoculum 10^7 CFU/ml): 1 µg/mL

CCCCCCCCCCCC[N+](C)(C)Cc1cnc(C[N+](C)(C)CCCCCCCCCCCC)c2c1COC(CC)O2 (stereo not drawn) [Compound I, 5,8-(Bis(methylene (N, N-dimethyl-N-dodecylammonium))-2-ethyl-4H-[1,3]dioxino [4,5-c]pyridiniumdichloride]
MIC (E. faecium 3028; Enterococcus faecium, E. faecium 3028, inoculum 10^7 CFU/ml, read-out: MIC): 1 µg/mL | MIC (Klebsiella spp. 10; Klebsiella spp. 10, inoculum 10^7 CFU/ml, read-out: MIC): 8 µg/mL | MIC (S. marcescens 1966 PR; Serratia marcescens, S. marcescens 1966 PR, inoculum 10^7 CFU/ml, read-out: MIC): 32 µg/mL | MIC (Klebsiella spp. 11; Klebsiella spp. 11, inoculum 10^7 CFU/ml, read-out: MIC): 16 µg/mL | MIC (S. aureus 19; Staphylococcus aureus, S. aureus 19, inoculum 10^7 CFU/ml, read-out: MIC): 2 µg/mL | MIC (Kl. pneumoniae 1781; Klebsiella pneumoniae, Kl. pneumoniae 1781, inoculum 10^7 CFU/ml, read-out: MIC): 2 µg/mL | MIC (S. aureus 1173 MRSA; Staphylococcus aureus, S. aureus 1173 MRSA, inoculum 10^7 CFU/ml, read-out: MIC): 2 µg/mL | MIC (S. aureus 1168 MRSA; Staphylococcus aureus, S. aureus 1168 MRSA, inoculum 10^7 CFU/ml, read-out: MIC): 1 µg/mL | MIC (Pseudomonas spp.6; read-out: MIC): 16 µg/mL | MIC (Moraxella sp.834; Moraxella sp.834, inoculum 10^7 CFU/ml, read-out: MIC): 4 µg/mL | MIC (Serratia spp. 15; Serratia spp. 15, inoculum 10^7 CFU/ml, read-out: MIC): 16 µg/mL | MIC (S. aureus 21; Staphylococcus aureus, S. aureus 21, inoculum 10^7 CFU/ml, read-out: MIC): 1 µg/mL | MIC (E. faecalis 3060; Enterococcus faecalis, E. faecalis 3060, inoculum 10^7 CFU/ml, read-out: MIC): 1 µg/mL | MIC (Moraxella sp. 764; Moraxella sp. 764, inoculum 10^7 CFU/ml, read-out: MIC): 8 µg/mL | MIC (Acinetobacter spp. 3; Acinetobacter spp. 3, inoculum 10^7 CFU/ml, read-out: MIC): 8 µg/mL | MIC (E. faecium 25; Enterococcus faecium, E. faecium 25, inoculum 10^7 CFU/ml, read-out: MIC): 0.03 µg/mL | MIC (M. luteus; Micrococcus luteus, M. luteus, inoculum 10^7 CFU/ml, read-out: MIC): 2 µg/mL | MIC (E. faecium 24; Enterococcus faecium, E. faecium 24, inoculum 10^7 CFU/ml, read-out: MIC): 0.03 µg/mL | MIC (Kl. pneumoniae 645 PR; Klebsiella pneumoniae, Kl. pneumoniae 645 PR, inoculum 10^7 CFU/ml, read-out: MIC): 32 µg/mL | MIC (Ps. aeruginosa 2869; Pseudomonas aeruginosa, Ps. aeruginosa 2869, inoculum 10^7 CFU/ml, read-out: MIC): 32 µg/mL | MIC (S. aureus 967 MRSA; Staphylococcus aureus, S. aureus 967 MRSA, inoculum 10^7 CFU/ml, read-out: MIC): 16 µg/mL | MIC (E. faecium 4402; Enterococcus faecium, E. faecium 4402, inoculum 10^7 CFU/ml, read-out: MIC): 0.06 µg/mL | MIC (E.coli ATCC 25922; Escherichia coli, ATCC25922, E.coli ATCC 25922, inoculum 10^7 CFU/ml, read-out: MIC): 2 µg/mL

CCCCCCCCCCCCCC(=O)NCCC[N+](C)(C)Cc1ccccc1.O.[Cl-] [Miramistin, benzyldimethyl [3-(myristoylamino)propyl]-ammonium chloride monohydrate]
MIC (E. faecium 3028; Enterococcus faecium, 3028): 16 µg/mL | MIC (Klebsiella spp. 10; Klebsiella, SPP.10): 64 µg/mL | MIC (S. marcescens 1966 PR; Serratia marcescens, 1966PR): 64 µg/mL | MIC (Klebsiella spp. 11; Klebsiella, SPP.11): 64 µg/mL | MIC (S. aureus 19; Staphylococcus aureus, 19): 16 µg/mL | MIC (Kl. pneumoniae 1781; Klebsiella pneumoniae, 1781): 64 µg/mL | MIC (S. aureus 1173 MRSA; Staphylococcus aureus, MRSA): 16 µg/mL | MIC (S. aureus 1168 MRSA; Staphylococcus aureus, MRSA): 8 µg/mL | MIC (Pseudomonas spp.6; read-out: MIC): > 64 µg/mL | MIC (Moraxella sp.834; Moraxella, SP.834): 32 µg/mL | MIC (Serratia spp. 15; Serratia, SPP.15): > 64 µg/mL | MIC (S. aureus 21; Staphylococcus aureus, 21): 16 µg/mL | MIC (E. faecalis 3060; Enterococcus faecalis, 3060): 8 µg/mL | MIC (Moraxella sp. 764; Moraxella, SP.764): 64 µg/mL | MIC (Acinetobacter spp. 3; Acinetobacter, SPP.3): 64 µg/mL | MIC (E. faecium 25; Enterococcus faecium, 25): < 0.5 µg/mL | MIC (M. luteus; Micrococcus luteus): 2 µg/mL | MIC (E. faecium 24; Enterococcus faecium, 24): 16 µg/mL | MIC (Kl. pneumoniae 645 PR; Klebsiella pneumoniae, 645PR): 64 µg/mL | MIC (Ps. aeruginosa 2869; Pseudomonas aeruginosa, 2869): 64 µg/mL | MIC (S. aureus 967 MRSA; Staphylococcus aureus, MRSA): 16 µg/mL | MIC (E. faecium 4402; Enterococcus faecium, 4402): 4 µg/mL | MIC (E.coli ATCC 25922; Escherichia coli, ATCC25922): 4 µg/mL
